In DBAASP one finds MIC data, which are given here for nine compounds.

Broadly, the MIC is the lowest concentration found to suppress growth. A lower MIC goes with greater potency.

In brackets after ≈: the same amount, converted by molar mass. Bounds are passed on as bounds.

Among the test systems are Escherichia coli D31; Staphylococcus xylosus; Escherichia coli UB1005; Candida albicans; Escherichia coli C600.
Common to all, as to test: ≥ marks a high value that may be exact or a test limit, other limits are often not marked, values filed in µg/mL are converted to µM
The test system of test [1] is Escherichia coli ATCC 2592.
Test [2] relates to Candida albicans ATCC 10231.
The test system of test [3] is Staphylococcus aureus ATCC 33591.
Test [4] concerns Pseudomonas aeruginosa ATCC 10145.
Test [5] concerns Cryptococcus neoformans ATCC 32045.
In test [6] the test system is Staphylococcus aureus ATCC 25923.
For test [7], the system named is Streptococcus mutans ATCC 25175.
Test [8] concerns Pseudomonas aeruginosa ATCC 15442.
Test [9] deals with Escherichia coli DH5alpha.
The subject of test [10] is Pseudomonas aeruginosa ATCC 27853.
The test system of test [11] is Staphylococcus aureus ATCC 43300.
In test [12] the test system is Staphylococcus aureus ATCC 29213.
For test [13], the system named is Salmonella enterica subsp. enterica serovar Choleraesuis CVCC 503.
In test [14] the test system is Candida tropicalis CGMCC 2.1975.
The test system of test [15] is Pseudomonas aeruginosa PAO1.
Test [16] deals with Salmonella enterica subsp. enterica serovar Typhimurium ATCC 14028.
Test [17] relates to Staphylococcus epidermidis ATCC 12228.
In test [18] the test system is Enterococcus faecalis ATCC 29212.
Test [19] relates to Candida parapsilosis CGMCC 2.3989.
Test [20] concerns Candida albicans CGMCC 2.2086.
The subject of test [21] is Salmonella enterica subsp. enterica serovar Typhimurium C77-31.
Test [22] has as its system Candida albicans ATCC 64550.
Test [23] deals with Escherichia coli ATCC 25922.
Test [24] relates to Staphylococcus aureus 209P.

On to `C[C@H](NC(=O)[C@H](CCCCN)NC(=O)[C@H](Cc1ccccc1)NC(=O)[C@H](C)NC(=O)[C@H](CCCCN)NC(=O)[C@H](Cc1ccccc1)NC(=O)[C@H](C)NC(=O)[C@H](CCCCN)NC(=O)[C@H](Cc1ccccc1)NC(=O)[C@H](C)NC(=O)[C@H](CCCCN)NC(=O)[C@H](Cc1ccccc1)NC(=O)[C@H](C)NC(=O)[C@H](CCCCN)NC(=O)[C@H](Cc1ccccc1)NC(=O)[C@H](C)NC(=O)[C@H](CCCCN)NC(=O)[C@H](Cc1ccccc1)NC(=O)[C@H](C)NC(=O)[C@H](CCCCN)NC(=O)[C@H](Cc1ccccc1)NC(=O)[C@H](C)NC(=O)[C@H](CCCCN)NC(=O)[C@H](Cc1ccccc1)NC(=O)[C@H](C)NC(=O)[C@H](CCCCN)NC(=O)[C@@H](N)Cc1ccccc1)C(=O)O` [FKAFKAFKAFKAFKAFKAFKAFKAFKA], for which the MIC in test [1] is 14 µM (≈ 43.8 µg/mL); in [2] it was 113 µM (≈ 354 µg/mL); in [3], 14 µM (≈ 43.8 µg/mL); in test [4] it was 6.38 µM (≈ 20 µg/mL); in test [5], 28.1 µM (≈ 88 µg/mL).

Regarding `C[C@H](NC(=O)[C@H](CCCCN)NC(=O)[C@H](Cc1ccccc1)NC(=O)[C@H](C)NC(=O)[C@H](CCCCN)NC(=O)[C@H](Cc1ccccc1)NC(=O)[C@H](C)NC(=O)[C@H](CCCCN)NC(=O)[C@H](Cc1ccccc1)NC(=O)[C@H](C)NC(=O)[C@H](CCCCN)NC(=O)[C@H](Cc1ccccc1)NC(=O)[C@H](C)NC(=O)[C@H](CCCCN)NC(=O)[C@H](Cc1ccccc1)NC(=O)[C@H](C)NC(=O)[C@H](CCCCN)NC(=O)[C@@H](N)Cc1ccccc1)C(=O)O` [FKAFKAFKAFKAFKAFKA], the MIC in [1] is 21.2 µM (≈ 44.5 µg/mL); in test [2], 169 µM (≈ 354 µg/mL); in [3], not below 238 µM; in test [4], not below 47.7 µM; in [5], 2.7 µM (≈ 5.66 µg/mL).

For `CC(C)C[C@H](NC(=O)[C@H](C)NC(=O)[C@H](CC(N)=O)NC(=O)[C@H](Cc1ccccc1)NC(=O)[C@@H](NC(=O)[C@@H](NC(=O)CN)C(C)C)[C@@H](C)O)C(=O)N[C@@H](CCCCN)C(=O)NCC(=O)N[C@H](C(=O)N[C@@H](C)C(=O)N[C@@H](CCCCN)C(=O)N[C@H](C(=O)N[C@H](C(=O)N[C@@H](C)C(=O)N[C@@H](C)C(=O)N[C@@H](CCC(N)=O)C(=O)N[C@@H](CC(C)C)C(=O)N[C@@H](CC(C)C)C(=O)N[C@@H](CCCCN)C(=O)N[C@H](C(=O)N[C@@H](C)C(=O)N[C@@H](CCCN=C(N)N)C(N)=O)[C@@H](C)O)C(C)C)[C@@H](C)O)C(C)C` [GVTFNALKGVAKTVAAQLLKTAR], the MIC is 16 µM (≈ 37.7 µg/mL) in test [6]; not below 100 µM in test [7]; more than 100 µM in test [2]; not below 64 µM in the test on Escherichia coli D31; not below 100 µM in test [8].

`NCCCC[C@H](NC(=O)[C@H](CCCN=C(N)N)NC(=O)[C@H](CCCCN)NC(=O)CNC(=O)[C@H](CCCCN)NC(=O)[C@H](CCCN=C(N)N)NC(=O)[C@@H](N)CCCCN)C(=O)O` [KRKGKRK]: the MIC (in test [9]; in the test on Staphylococcus xylosus) was not below 64 µM each time.

Regarding `CC[C@H](C)[C@H](NC(=O)[C@H](CC(C)C)NC(=O)[C@@H](NC(=O)[C@H](CC(C)C)NC(=O)[C@@H](NC(=O)[C@H](CC(C)C)NC(=O)[C@@H](NC(=O)[C@H](CCCCN)NC(=O)[C@H](CCCN=C(N)N)NC(=O)[C@@H](N)CCCCN)[C@@H](C)CC)[C@@H](C)CC)[C@@H](C)CC)C(=O)N[C@@H](CC(C)C)C(=O)O` [KRKILILILIL], the MIC (in test [9]; with Staphylococcus xylosus) was not below 64 µM in each case.

For `CC[C@H](C)[C@H](NC(=O)[C@H](CC(C)C)NC(=O)[C@@H](NC(=O)[C@H](CCCN=C(N)N)NC(=O)[C@H](CCCCN)NC(=O)[C@H](CCCN=C(N)N)NC(=O)[C@H](CCCCN)NC(=O)[C@H](CCCN=C(N)N)NC(=O)[C@H](CCCCN)NC(=O)[C@H](CCCN=C(N)N)NC(=O)[C@H](CCCCN)NC(=O)[C@H](CC(C)C)NC(=O)[C@@H](NC(=O)[C@@H](N)CC(C)C)[C@@H](C)CC)[C@@H](C)CC)C(=O)O` [LILKRKRKRKRILI], the MIC in test [10] is 128 µM (≈ 235 µg/mL); in test [9], not below 64 µM; with Staphylococcus xylosus, not below 64 µM.

Take `CC(C)C[C@H](NC(=O)[C@H](CCCCN)NC(=O)[C@H](CCCCN)NC(=O)[C@H](CC(C)C)NC(=O)[C@H](CCCN=C(N)N)NC(=O)[C@H](CS)NC(=O)[C@H](C)NC(=O)[C@H](CC(C)C)NC(=O)[C@H](CCCCN)NC(=O)[C@H](CCCCN)NC(=O)[C@@H](N)CC(C)C)C(=O)N[C@@H](C)C(=O)N[C@@H](CS)C(=O)N[C@@H](CCCN=C(N)N)C(N)=O` [LKKLACRLKKLACR]: the MIC in test [11] is 64 µM (≈ 105 µg/mL); in test [12], 64 µM (≈ 105 µg/mL); in [13], not below 32 µM; in test [6], more than 64 µM; in test [14] it was 8 µM (≈ 13.1 µg/mL); in test [15] it was 16 µM (≈ 26.3 µg/mL). Further, the MIC was 64 µM (≈ 105 µg/mL) in [16]; more than 64 µM in test [17]; more than 64 µM in test [18]; not below 32 µM against Escherichia coli UB1005; 45.3 µM (≈ 74.4 µg/mL) with Candida albicans; 32 µM (≈ 52.6 µg/mL) in [10]. In addition, the values for the minimum inhibitory concentration (MIC) in test [19], in [20] and in test [21] were not below 64 µM, not below 64 µM and not below 32 µM, respectively.

As to `CC(C)[C@H](NC(=O)[C@H](Cc1c[nH]c2ccccc12)NC(=O)[C@H](CCCCN)NC(=O)[C@@H](N)CCCN=C(N)N)C(=O)N[C@@H](Cc1c[nH]c2ccccc12)C(=O)N[C@@H](Cc1c[nH]c2ccccc12)C(=O)N[C@@H](CCCN=C(N)N)C(=O)N[C@@H](CC(N)=O)C(=O)N[C@@H](CCCN=C(N)N)C(N)=O` [RKWVWWRNR], the MIC in test [12] was 11.5 µM (≈ 16 µg/mL); in test [22] it was not below 100 µM; in test [17], 5.77 µM (≈ 7.99 µg/mL); in test [23] it was 90.1 µM (≈ 125 µg/mL).

For the compound `CC(C)[C@@H]1NC(=O)CNC(=O)[C@H](CCCN=C(N)N)NC(=O)[C@H](C(C)C)NC(=O)[C@H](CCCN=C(N)N)NC(=O)[C@H](C)NC(=O)[C@H](Cc2ccc(O)cc2)NC(=O)[C@H](C(C)C)NC(=O)[C@@H](NC(=O)[C@H](Cc2c[nH]c3ccccc23)NC(=O)[C@@H](N)CCCN=C(N)N)CSSC[C@@H](C(=O)N[C@@H](CCCN=C(N)N)C(=O)O)NC(=O)[C@H](CCCN=C(N)N)NC(=O)[C@H](CCCN=C(N)N)NC(=O)[C@H](Cc2ccc(O)cc2)NC(=O)[C@H](CCCN=C(N)N)NC1=O` [RWCVYARVRGVRYRRCR], the MIC came out at 6.25 µM (≈ 14.1 µg/mL) in test [15], 3.13 µM (≈ 7.05 µg/mL) against Escherichia coli C600 and 3.13 µM (≈ 7.05 µg/mL) in test [24].
